Source: ChEMBL document CHEMBL5236587, “Discovery of oxazoline enhancers of cellular progranulin release” (Bioorg Med Chem Lett, 2023)

Assays:
[1] = molecular target: Muscarinic acetylcholine receptor M3 (Homo sapiens, UniProt P20309); assay: Antagonist activity at M3 receptor (unknown origin)
[2] = Induction of progranulin secretion in mouse BV-2 cells; format: functional, cell-based
[3] = molecular target: Voltage-gated inwardly rectifying potassium channel KCNH2 (Homo sapiens, UniProt Q12809); assay: Inhibition of human ERG; format: toxicity
Sequence of Voltage-gated inwardly rectifying potassium channel KCNH2 (Q12809 whole entry): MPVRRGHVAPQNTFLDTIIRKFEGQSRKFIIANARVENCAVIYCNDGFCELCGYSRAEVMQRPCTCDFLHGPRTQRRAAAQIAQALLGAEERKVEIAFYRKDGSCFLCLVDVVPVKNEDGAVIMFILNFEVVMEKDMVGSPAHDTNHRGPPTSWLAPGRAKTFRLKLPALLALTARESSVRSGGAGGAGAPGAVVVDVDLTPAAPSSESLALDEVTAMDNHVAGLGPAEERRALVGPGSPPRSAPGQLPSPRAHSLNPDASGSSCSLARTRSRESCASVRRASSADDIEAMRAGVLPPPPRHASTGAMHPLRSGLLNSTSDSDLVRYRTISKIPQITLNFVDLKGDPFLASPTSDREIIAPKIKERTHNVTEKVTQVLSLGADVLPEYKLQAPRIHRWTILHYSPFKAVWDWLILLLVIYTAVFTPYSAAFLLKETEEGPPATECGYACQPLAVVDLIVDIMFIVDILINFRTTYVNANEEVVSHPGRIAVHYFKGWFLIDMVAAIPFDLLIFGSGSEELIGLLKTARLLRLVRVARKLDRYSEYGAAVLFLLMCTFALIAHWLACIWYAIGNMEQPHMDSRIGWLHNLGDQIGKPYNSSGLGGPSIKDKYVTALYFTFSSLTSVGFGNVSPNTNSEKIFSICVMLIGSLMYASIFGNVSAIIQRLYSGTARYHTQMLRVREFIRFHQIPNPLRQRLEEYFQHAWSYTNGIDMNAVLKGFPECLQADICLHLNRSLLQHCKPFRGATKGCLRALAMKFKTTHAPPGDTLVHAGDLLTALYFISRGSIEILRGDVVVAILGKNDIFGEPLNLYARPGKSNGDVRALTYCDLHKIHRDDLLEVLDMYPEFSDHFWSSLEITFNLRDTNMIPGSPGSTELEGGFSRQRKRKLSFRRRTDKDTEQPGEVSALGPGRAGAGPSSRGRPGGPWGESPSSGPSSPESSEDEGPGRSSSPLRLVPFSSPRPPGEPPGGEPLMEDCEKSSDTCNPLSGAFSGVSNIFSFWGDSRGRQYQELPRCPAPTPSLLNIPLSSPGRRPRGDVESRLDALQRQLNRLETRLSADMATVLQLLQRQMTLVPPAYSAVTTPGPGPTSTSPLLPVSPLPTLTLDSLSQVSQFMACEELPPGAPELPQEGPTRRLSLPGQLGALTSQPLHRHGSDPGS

Sequence of Muscarinic acetylcholine receptor M3 (P20309 whole entry): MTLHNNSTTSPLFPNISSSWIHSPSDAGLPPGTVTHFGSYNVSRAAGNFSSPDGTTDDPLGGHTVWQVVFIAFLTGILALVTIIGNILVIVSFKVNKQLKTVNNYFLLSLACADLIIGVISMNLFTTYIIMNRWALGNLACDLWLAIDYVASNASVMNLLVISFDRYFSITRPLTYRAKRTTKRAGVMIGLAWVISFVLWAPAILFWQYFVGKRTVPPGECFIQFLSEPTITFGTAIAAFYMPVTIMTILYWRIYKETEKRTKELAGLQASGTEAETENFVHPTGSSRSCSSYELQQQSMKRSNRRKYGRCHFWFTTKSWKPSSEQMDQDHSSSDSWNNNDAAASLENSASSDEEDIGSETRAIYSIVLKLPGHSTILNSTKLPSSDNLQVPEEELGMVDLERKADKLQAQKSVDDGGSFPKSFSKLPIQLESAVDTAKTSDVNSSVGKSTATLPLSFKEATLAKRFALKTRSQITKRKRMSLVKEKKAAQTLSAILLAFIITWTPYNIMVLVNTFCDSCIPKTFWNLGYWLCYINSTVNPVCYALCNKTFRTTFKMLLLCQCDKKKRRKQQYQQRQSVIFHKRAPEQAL

SMILES | EC50 [1] | EC50 [2] | IC50 [3]
O=C(O[C@H]1CN2CCC1CC2)N1CCc2ccccc2[C@@H]1c1ccc(F)cc1 | 17000 nM | 257 nM | 340 nM
O=C(O[C@H]1CN2CCC1CC2)N1CCc2ccccc2[C@@H]1c1ccccc1 [SOLIFENACIN] | 24 nM | 1300 nM | –
